Experimental data from ChEMBL document CHEMBL1255520, “Azole derivatives as histamine H3 receptor antagonists, part I: thiazol-2-yl ethers” (Bioorg Med Chem Lett, 2010).

Target: Histamine H3 receptor (Homo sapiens, UniProt Q9Y5N1)
Assay: Displacement of [125I]iodoproxyfan human histamine H3 receptor

Sequence of Histamine H3 receptor (Q9Y5N1 whole entry): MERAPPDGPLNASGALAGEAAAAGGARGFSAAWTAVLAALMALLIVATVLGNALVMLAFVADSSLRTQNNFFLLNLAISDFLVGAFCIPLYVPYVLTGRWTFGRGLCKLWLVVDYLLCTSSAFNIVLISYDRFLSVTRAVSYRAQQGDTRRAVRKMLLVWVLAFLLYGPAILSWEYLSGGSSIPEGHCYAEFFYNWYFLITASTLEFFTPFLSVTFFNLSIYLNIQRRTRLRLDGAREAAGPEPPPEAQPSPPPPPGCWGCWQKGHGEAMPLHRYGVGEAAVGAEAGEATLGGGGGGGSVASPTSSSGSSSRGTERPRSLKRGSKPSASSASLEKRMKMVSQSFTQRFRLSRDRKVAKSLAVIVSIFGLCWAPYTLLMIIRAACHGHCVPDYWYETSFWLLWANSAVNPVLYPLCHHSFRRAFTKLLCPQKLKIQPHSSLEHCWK

Ki [nM] | SMILES
20 | C1CCN(CCCOc2nc3c(s2)CCN(CCCN2CCCCC2)C3)CC1
41 | Cc1nc(OCCCN2CCCCC2)sc1-c1ccccc1
261 | c1ccc(CN2CCc3sc(OCCCN4CCCCC4)nc3C2)cc1
257 | CN(C)CCCOc1nc2c(s1)CCN(C)C2
> 1000 | CN(C)CCCOc1nc2c(s1)CCCC2
344 | C1CCN(CCCOc2nc3c(s2)CCOC3)CC1
14 | CCN1CCc2sc(OCCCN3CCCCC3)nc2C1
24 | CN1CCc2sc(OCCCN3CCCCC3)nc2C1
153 | CN(C)CCCOc1nc2c(s1)CCCC2=O
> 1000 | O=C1CCCc2sc(OCCCN3CCCCC3)nc21
155 | CC(=O)c1nc(OCCCN2CCCCC2)sc1C
357 | C1CCN(CCCOc2nc3c(s2)CCCC3)CC1
93 | Brc1nc(OCCCN2CCCCC2)sc1-c1ccccc1
11.2 | c1ccc(-c2nc(OCCCN3CCCCC3)sc2-c2ccccc2)cc1
> 1000 | CN(C)CCCOc1nc2c(s1)CCOC2
